System: KRAS-mutant PDC multicell tumor spheroid viability
Test: Anticancer human tumor 521955-158-R2-J5-PDC patient-derived pancreatic carcinoma cell line growth inhibition [KRAS2]
Conditions: for IC50: curve of first compound; for viability, T/C: stronger effect = lower value
Summary of the method: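 Combination screen of spheroid viability in tumor-cell co-cultures with endothelial (HUVEC) and mesenchymal stem cell stroma. Each agent was tested in half-log dilutions, topping at clinical Cmax or at 10 microM without a known Cmax.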

[1] = second compound 0.1 µM, first compound 0.0316 µM
[2] = second compound 0.1 µM, first compound 0.1 µM
[3] = second compound 0.1 µM, first compound 0.316 µM
[4] = second compound 0.1 µM, first compound 1 µM
[5] = second compound 0.1 µM, first compound 3.16 µM
[6] = second compound 0.1 µM, first compound 10 µM
[7] = second compound 0.316 µM, first compound 0.0316 µM
[8] = second compound 0.316 µM, first compound 0.1 µM
[9] = second compound 0.316 µM, first compound 0.316 µM
[10] = second compound 0.316 µM, first compound 1 µM
[11] = second compound 0.316 µM, first compound 3.16 µM
[12] = second compound 0.316 µM, first compound 10 µM
[13] = second compound 1 µM, first compound 0.0316 µM
[14] = second compound 1 µM, first compound 0.1 µM
[15] = second compound 1 µM, first compound 0.316 µM
[16] = second compound 1 µM, first compound 1 µM
[17] = second compound 1 µM, first compound 3.16 µM
[18] = second compound 1 µM, first compound 10 µM
[19] = second compound 3.16 µM, first compound 0.0316 µM
[20] = second compound 3.16 µM, first compound 0.1 µM
[21] = second compound 3.16 µM, first compound 0.316 µM
[22] = second compound 3.16 µM, first compound 1 µM
[23] = second compound 3.16 µM, first compound 3.16 µM
[24] = second compound 3.16 µM, first compound 10 µM
[25] = second compound 10 µM, first compound 0.0316 µM
[26] = second compound 10 µM, first compound 0.1 µM
[27] = second compound 10 µM, first compound 0.316 µM
[28] = second compound 10 µM, first compound 1 µM
[29] = second compound 10 µM, first compound 3.16 µM
[30] = second compound 10 µM, first compound 10 µM
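Also: viability read after seven days of drug exposure.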

`COC(=O)c1ccc2c(C(=Nc3ccc(N(C)C(=O)CN4CCN(C)CC4)cc3)c3ccccc3)c(O)[nH]c2c1` + COc1cc2nc(C)nc(NC(C)c3cc(N)cc(C(F)(F)F)c3)c2cc1OC1CCOC1 gave an IC50 (second compound 0.1 µM) of 2010 nM, an IC50 (second compound 0.316 µM) of 2710 nM and an IC50 (second compound 1 µM) of 1840 nM. The IC50 (second compound 3.16 µM) was 1780 nM, the IC50 (second compound 10 µM) was < 31.6 nM and the viability, T/C [1] was 113%. It also gave a viability, T/C [2] of 118%, a viability, T/C [3] of 118% and a viability, T/C [4] of 138%. For the same molecule, the viability, T/C [5] was 3.03%, the viability, T/C [6] was 0.16% and the viability, T/C [7] was 96.5%. It also gave a viability, T/C [8] of 105%, a viability, T/C [9] of 100% and a viability, T/C [10] of 102%. It also gave a viability, T/C [11] of 42.1%, a viability, T/C [12] of 0.17% and a viability, T/C [13] of 96.8%. It also gave a viability, T/C [14] of 90.3%, a viability, T/C [15] of 108% and a viability, T/C [16] of 102%. It also gave a viability, T/C [17] of 6.39%, a viability, T/C [18] of 0.16% and a viability, T/C [19] of 111%. For the same molecule, the viability, T/C [20] was 94.7%, the viability, T/C [21] was 112% and the viability, T/C [22] was 99.6%. For the same molecule, the viability, T/C [23] was 0.72%, the viability, T/C [24] was 0.58% and the viability, T/C [25] was 17.9%. It also gave a viability, T/C [26] of 15.5%, a viability, T/C [27] of 2.96% and a viability, T/C [28] of 0.51%. It also gave a viability, T/C [29] of 0.17% and a viability, T/C [30] of 0.22%.

For `O=C(c1cc(Cc2n[nH]c(=O)c3ccccc23)ccc1F)N1CCN(C(=O)C2CC2)CC1` + COc1cc2nc(C)nc(NC(C)c3cc(N)cc(C(F)(F)F)c3)c2cc1OC1CCOC1, the IC50 (second compound 0.1 µM) was > 10000 nM, the IC50 (second compound 0.316 µM) was > 10000 nM and the IC50 (second compound 1 µM) was > 10000 nM. The IC50 (second compound 3.16 µM) was > 10000 nM, the IC50 (second compound 10 µM) was > 10000 nM and the viability, T/C [1] was 92.5%. For the same molecule, the viability, T/C [2] was 71.2%, the viability, T/C [3] was 83.6% and the viability, T/C [4] was 88.9%. The viability, T/C [5] was 75.5%, the viability, T/C [6] was 74.5% and the viability, T/C [7] was 81.2%. The viability, T/C [8] was 66.3%, the viability, T/C [9] was 70.2% and the viability, T/C [10] was 73%. The viability, T/C [11] was 79.6%, the viability, T/C [12] was 58.2% and the viability, T/C [13] was 107%. It also gave a viability, T/C [14] of 102%, a viability, T/C [15] of 94.6% and a viability, T/C [16] of 96.3%. The viability, T/C [17] was 92.3%, the viability, T/C [18] was 64.6% and the viability, T/C [19] was 108%. It also gave a viability, T/C [20] of 96.6%, a viability, T/C [21] of 97.5% and a viability, T/C [22] of 83.9%. For the same molecule, the viability, T/C [23] was 81.1%, the viability, T/C [24] was 51.5% and the viability, T/C [25] was 107%. It also gave a viability, T/C [26] of 119%, a viability, T/C [27] of 112% and a viability, T/C [28] of 96.8%. It also gave a viability, T/C [29] of 86.8% and a viability, T/C [30] of 65.2%.

Reference: PubChem BioAssay AID1963871 (Molecular Pharmacology Branch, DTP, NCI, 2024)
